In patent US20100016247A1, “USING BUDDING YEAST TO SCREEN FOR INHIBITORS OF AURORA KINASES” (FLORIDA STATE UNIVERSITY RESEARCH FOUNDATION, priority 2008, published 2010):
Like-named read-outs stand apart in the source and are kept apart here.

Legend:
[1] = system: ipl1-321 mutant yeast cells; assay: Growth of ipl1-321 mutant yeast cultures by OD600; format: cell-based, Saccharomyces cerevisiae; settings: 25° C.; for growth inhibition of ipl1-321 cells: 10 μg/ml, 24 hr, vs untreated control
Procedure: (§1) Wild-type and ipl1-321 mutant yeast strains are used for this purpose. […] After incubation at about 25° C. for about 24 hrs, the growth of the yeast cultures in the presence of tested compounds is determined by measuring OD600.

Hela cells = assay: Cell growth assay (MTT, cell counting); format: cell-based, human; settings: for growth inhibition by MTT assay: Hela, 48 hours
Procedure: (§2) A549, Hela and MCF-7 cell lines are cultured in 96-well tissue culture plates at a cell density of 5,000 cells per well in RPMI-I640 or MEM containing 10% fetus bovine serum and 2 mM L-glutamine. After attachment overnight, the medium is replaced and cells are incubated with increasing concentrations of Jadomycin B or its two derivatives, Jadomycin S and T (ranging from 10^−4 M to 10^−8 M). After treatment for 48 hours, 3-(4,5-dimethylthiazol-2-yl)-2,5-diphenyltetrazolium bromide (MTT) assays are carried out in triplication. The concentration-viability curves are fitted and IC50 values are determined. Cells are also plated at a cell density of 10,000 cells per well in six-well tissue culture plates. After attachment overnight, cells are treated with 0, 5, or 10 μg/ml Jadomycin B for 96 hours. Cells are detached every 24 hr by trypsinization to count the cell number. All experiments are repeated three times.

MCF-7 cells = assay: Cell growth assay (MTT, cell counting); format: cell-based, human; settings: for growth inhibition by MTT assay: MCF-7, 48 hours
Procedure: as §2

A549 cells [2] = assay: Cell growth assay (MTT, cell counting); format: cell-based, human; settings: for growth inhibition by MTT assay: A549, 48 hours
Procedure: as §2

[3] = biological target: T1, purified recombinant human Aurora-B kinase (Homo sapiens, UniProt Q96GD4); assay: In vitro Aurora-B kinase activity assay (ELISA kit); format: biochemical; settings: for inhibitory effect on Aurora-B: same condition as FIG. 3A, data not shown
T1 construct: purchased Cell Signaling Technology
Procedure: To determine the inhibition of Aurora-B kinase activity by Jadomycin B, an Aurora-B kinase activity assay kit (Cell Signaling Technology) is used according to the manufacturer's instruction. Briefly, 100 ng of purified recombinant human Aurora-B kinase is added to a 100 μl reaction mixture containing 1× kinase buffer and 25 μM cold ATP in the presence of different concentrations of Jadomycin B (ranging from 10^−4 M to 10^−10 M). After incubation at room temperature for 15 min, biotinylated peptide substrate (Cell Signaling Technology) is added to each reaction mixture at a final concentration of 1.5 μM, and the mixtures are further incubated for 30 min. A parallel control experiment is performed under the same conditions without Jadomycin B. The reaction is stopped by addition of 50 μM EDTA (pH 8). The 25 μl reaction mixture is then transferred to a streptavidin-coated 96-well plate (PerkinElmer, Inc) and incubated at room temperature for 60 min. After washing three times with PBS/T, the […] (Ser10) antibody (Cell Signaling Technology) is added to the plate for further incubation at 37° C. for 120 min. After washing, FITC-labeled secondary antibody (Santa Cruz) is added. After incubation at room temperature for 30 min, the plate is finally washed five times, and the fluorescence signal is determined with BMG Polarstar Galaxy (Germany) at 535 nm. The inhibition ratio by Jadomycin B at each concentration is calculated according to the following equation: % Inhibition=100×(1−countstreated/countscontrol). The inhibition curve is then fitted by Originpro7.5 program and the IC50 value of Jadomycin B is determined.
To determine the mode of inhibition of Aurora-B by Jadomycin B, the kinase activity is also examined in the presence of different concentrations of ATP (25, 50, 75, 100, and 200 μM). The inhibition ratio of Aurora-B kinase activity by Jadomycin B at various concentrations is calculated as described above and the inhibition curve is fitted. The IC50 value of Jadomycin B at each ATP concentration is then determined and a linear fit is made with all five IC50 values. The Ki is determined from the intercept of the plot of [ATP] versus IC50 values (IC50=Ki/Km[ATP]+Ki).

IM-9 cells = settings: cited from earlier work
H460 cells = settings: cited from earlier work
IM9/Bcl-2 cells = settings: cited from earlier work
HepG2 cells = settings: cited from earlier work
wild-type yeast cells = assay: Growth of wild-type yeast cultures by OD600; format: cell-based, Saccharomyces cerevisiae; settings: 25° C.
Procedure: as §1

[4] = system: phosphorylated histone H3 (Ser10) in HepG2 cells; assay: Western blotting of phosphorylated histone H3 (Ser10); format: cell-based, human; settings: HepG2, 10 μg/ml, 24 hours
Procedure: (§3) A549 cells in the exponential growth phase are treated with 0, 1.25, 2.5, 5, 7.5, or 10 μg/ml Jadomycin B for 24 hours, while Hela and HepG2 cells are treated with 0 or 10 μg/ml of Jadomycin B. Cells are washed with cold PBS and whole-cell extracts are prepared with RIPA lysis buffer containing 60 μg/ml of PMSF. Equal amounts of protein (30 μg) are resolved with 15% SDS-PAGE. After transfer, the membranes are incubated overnight with primary antibodies (1:1000) against phosphorylated histone H3 (Ser10) (Cell Signaling Technology) and β-tubulin (Santa Cruz Biotechnology) at 4° C. The membranes are then incubated with HRP-conjugated goat anti-rabbit secondary antibody (Santa Cruz) at 1:200 followed by Chemiluminescence staining (Millipore).

[5] = system: phosphorylated histone H3 (Ser10) in Hela cells; assay: as above; format: cell-based, human; settings: 10 μg/ml, 24 hours
Procedure: as §3

A549 cells [6] = assay: FACS analysis of apoptosis and cell cycle distribution; format: cell-based, human; settings: 5 μg/ml
Procedure: A549 cells in exponential growth phase are treated with 0 or 5 μg/ml Jadomycin B for up to 48 hours. Cells collected at the indicated times are fixed and stained with Propidium Iodide (PI). FACS analysis is performed to determine the percentage of apoptotic cells and cell cycle distribution by using the EPICS XL flow cytometer and System II software.

A549 cells [7] = assay: Hoechst 33342 staining, chromatin condensation and apoptotic body; format: cell-based, human; settings: 5 μg/ml, 48 hours
Procedure: Hoechst 33342 is a fluorescence dye that can be embedded in DNA double helix and emit blue fluorescence when excited with UV light. Treated and untreated A549 cell samples with 5 μg/ml Jadomycin B for 48 hours are stained with 100 ng/ml Hoechst 33342 for 10 minutes in dark. Stained cells are visualized with a Nikon ECLIPSS TE2000-U fluorescence microscope (Japan) at 100× and 400× magnification. Apoptotic cells show brightly stained nuclei because of the chromosome condensation and the appeared apoptotic bodies.

[8] = system: phosphorylated histone H3 (Ser10) in A549 cells; assay: Western blotting of phosphorylated histone H3 (Ser10); format: cell-based, human; settings: 24 hr
Procedure: as §3, with “Cells” for “A549 cells in the exponential growth phase are treated with 0, 1.25, 2.5, 5, 7.5, or 10 μg/ml Jadomycin B for 24 hours, while Hela and HepG2 cells are treated with 0 or 10 μg/ml of Jadomycin B. Cells”

T1 sequence (Q96GD4 whole entry): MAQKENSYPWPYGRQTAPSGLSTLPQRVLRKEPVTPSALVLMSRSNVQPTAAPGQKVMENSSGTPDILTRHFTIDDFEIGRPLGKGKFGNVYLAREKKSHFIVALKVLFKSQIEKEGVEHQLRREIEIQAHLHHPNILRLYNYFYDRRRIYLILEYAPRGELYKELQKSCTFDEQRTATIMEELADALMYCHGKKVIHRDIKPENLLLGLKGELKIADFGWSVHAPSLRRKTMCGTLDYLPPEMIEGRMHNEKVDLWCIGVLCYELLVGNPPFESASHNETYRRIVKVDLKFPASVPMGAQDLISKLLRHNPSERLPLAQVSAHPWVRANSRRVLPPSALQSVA

Cc1cc(O)c2c(c1)[C@@H]1OC(=O)[C@H](CO)N1C1=C2C(=O)c2cccc(O[C@H]3C[C@@H](O)[C@@H](O)[C@H](C)O3)c2C1=O [Jadomycin S, reference compound]
growth inhibition of ipl1-321 cells [1]: neither shows inhibitory effect | growth inhibition by MTT assay (Hela cells): inhibited growth | growth inhibition by MTT assay (MCF-7 cells): inhibited growth | growth inhibition by MTT assay (A549 cells [2]): inhibited growth | inhibitory effect on Aurora-B [3]: no inhibitory activity is detected

CC[C@H](C)[C@H]1C(=O)O[C@H]2c3cc(C)cc(O)c3C3=C(C(=O)c4c(O[C@H]5C[C@@H](O)[C@@H](O)[C@H](C)O5)cccc4C3=O)N12 [Jadomycin B]
inhibition of proliferation (IM-9 cells): inhibits the proliferation | inhibition of proliferation (H460 cells): inhibits the proliferation | inhibition of proliferation (IM9/Bcl-2 cells): inhibits the proliferation | growth inhibition of ipl1-321 mutant cells ([1]; 5 μg/ml, 24 hours): 50% | growth inhibition of ipl1-321 cells [1]: almost completely | inhibition of proliferation (HepG2 cells): inhibits the proliferation | growth inhibition of wild-type cells (wild-type yeast cells; 5 μg/ml, 24 hours): little growth inhibition | growth inhibition of wild-type cells (wild-type yeast cells; 10 μg/ml, 24 hr): uninhibited | growth inhibition of wild-type cells (wild-type yeast cells; 100 μg/ml, 24 hours): 60% | levels of phosphorylated histone H3 [4]: significant decrease | levels of phosphorylated histone H3 [5]: significant decrease | effect on cell cycle (A549 cells [6]): does not block cell cycle | increase of cells in S phase (A549 cells [6]): 2% | percentage of apoptotic cells, treated versus untreated (A549 cells [6]; 3 hr): almost no difference | portion of apoptotic cells (sub-G1) (A549 cells [6]; 12 hr): 17.8% | portion of apoptotic cells (sub-G1) (A549 cells [6]; 24 hr): 44% | portion of apoptotic cells (sub-G1) (A549 cells [6]; 48 hr): 71.7% | apoptosis by Hoechst 33342 staining (A549 cells [7]): more and more cells underwent apoptosis | growth curve, sensitivity of cell line (Hela cells; Hela, 0, 5 or 10 μg/ml, 96 hours, cell counting): sensitive | growth curve, sensitivity of cell line (MCF-7 cells; MCF-7, 0, 5 or 10 μg/ml, 96 hours, cell counting): sensitive | growth curve, sensitivity of cell line (A549 cells [2]; A549, 0, 5 or 10 μg/ml, 96 hours, cell counting): sensitive | growth inhibition by MTT assay (A549 cells [2]): most sensitive | IC50 ([3]; 25 μM ATP, ATP titration FIG. 3B, read-out: IC50 for Aurora-B at given ATP concentration): 12.5 µM | IC50 ([3]; 25 μM ATP, fitted inhibition curve FIG. 3A, read-out: IC50 for inhibition of Aurora-B kinase activity): 10.5 µM | IC50 ([3]; 50 μM ATP, read-out: IC50 for Aurora-B at given ATP concentration): 16.6 µM | IC50 ([3]; 75 μM ATP, read-out: IC50 for Aurora-B at given ATP concentration): 24.5 µM | IC50 ([3]; 100 μM ATP, read-out: IC50 for Aurora-B at given ATP concentration): 32.2 µM | IC50 ([3]; 200 μM ATP, read-out: IC50 for Aurora-B at given ATP concentration): 53.1 µM | Ki ([3]; from linear fit of IC50 versus [ATP]): 6.8 µM | mode of inhibition of Aurora-B kinase ([3]; with respect to ATP, 5 ATP concentrations): competitive inhibition | reduction of H3 phosphorylation (grayscale scanning) ([8]; A549, 2 μg/ml): 28% | phosphorylated histone H3 band on western blot ([8]; A549, 10 μg/ml): do not express any detectable phosphorylated histone H3 | reduction of H3 phosphorylation (grayscale scanning) ([8]; A549, 10 μg/ml): 73%

Cc1cc(O)c2c(c1)[C@@H]1OC(=O)[C@H]([C@H](C)O)N1C1=C2C(=O)c2cccc(O[C@H]3C[C@@H](O)[C@@H](O)[C@H](C)O3)c2C1=O [Jadomycin T, reference compound]
growth inhibition of ipl1-321 cells [1]: neither shows inhibitory effect | growth inhibition by MTT assay (Hela cells): inhibited growth | growth inhibition by MTT assay (MCF-7 cells): inhibited growth | growth inhibition by MTT assay (A549 cells [2]): inhibited growth | inhibitory effect on Aurora-B [3]: no inhibitory activity is detected
